Laboratory results published in patent US4724259A, “Azo dyes and liquid-crystalline materials containing these dyes” (BASF Aktiengesellschaft, priority 1983, dated 1988).

What was measured:
Type in all cases: physicochemical
[1] = Solubility L in liquid crystal mixture (saturated solution, comparison of extinction); settings: room temperature, percentages by weight unless stated otherwise
[2] = Degree of order S in nematic broad-range mixture (dichroic ratio, homogeneous edge orientation, ground PVA cells); settings: room temperature
Protocol: The degree of order S was determined using the conventional equation [formula] the measurement being carried out in commercial measuring cells with a homogeneous edge orientation (ground PVA). The dichroic ratio CR was determined by measuring the extinctions E" (measurement with light polarized parallel to the preferred direction of the nematic phase) and E^.perp. (measurement with light polarized perpendicular to the preferred direction of the nematic phase) and using the relationship CR=E"/E^.perp. the dye concentration being chosen so that E" was from 1 to 2. The measurements were carried out in a Beckmann Acta CIII spectrophotometer.

[3] = Light stability: high-speed exposure of the measuring cell in a Suntest from Hanau; settings: 25° C., at the stated λmax
Protocol: The light stability was determined by high-speed exposure of the measuring cell in a Suntest from Hanau, at 25° C. In this procedure, the decrease in E" was measured. […] E" was determined at the stated λmax values.

[4] = ZLI 1840 (Merck), 1 week stirring

Structure (SMILES)	Solubility L [1, 4]	Degree of order S ([2]; ZLI 1840 (Merck))	E80% " (exposure time after which E"o has decreased to 80%) [3]	Eo " (initial extinction) [3]	Solubility L ([1]; ZLI 1957/5 (Merck))	Degree of order S ([2]; ZLI 1957/5 (Merck))
Cc1cc(O)ccc1N=Nc1ccc(N=Nc2ccc(N=Nc3ccc(OCc4ccccc4)cc3C)cc2)cc1 [Example 1, 4-(2-methyl-4-hydroxyphenylazo)-4'-(2-methyl-4-benzyloxyphenylazo)-azobenzene]	0.9%	0.75				
CCCCCC1CCC(c2ccc(COc3ccc(N=Nc4ccc(N=Nc5ccc(N=Nc6ccc(O)cc6C)cc5)cc4)c(C)c3)cc2)CC1 (centres unmarked) [Example 5]	1.9%	0.79	70 h	1.23		
CCCCC1CCC(c2ccc(COc3ccc(N=Nc4ccc(N=Nc5ccc(N=Nc6ccc(OCc7ccc(C8CCC(CCCC)CC8)cc7)cc6C)cc5)cc4)c(C)c3)cc2)CC1 (centres unmarked) [Example 8]	0.3%	0.79				
CCCCCC1CCC(c2ccc(COc3ccc(N=Nc4ccc(N=Nc5ccc(N=Nc6ccc(OCc7ccc(C8CCC(CCCCC)CC8)cc7)cc6C)cc5)cc4)c(C)c3)cc2)CC1 (centres unmarked) [Example 9]	0.8%	0.81	140 h	1.51		
CCCCCC1CCC(c2ccc(COc3cc(C)c(N=Nc4ccc(N=Nc5ccc(N=Nc6c(C)cc(OCc7ccc(C8CCC(CCCCC)CC8)cc7)cc6C)cc5)cc4)c(C)c3)cc2)CC1 (centres unmarked) [Example 17]					0.2%	0.81
Cc1cc(OCc2cc(C(C)(C)C)cc(C(C)(C)C)c2)ccc1N=Nc1ccc(N=Nc2ccc(N=Nc3ccc(OCc4cc(C(C)(C)C)cc(C(C)(C)C)c4)cc3C)cc2)cc1 [Example 11]					0.7%	0.76
CCCCCc1ccc(COc2ccc(N=Nc3ccc(N=Nc4ccc(N=Nc5ccc(OCc6ccc(CCCCC)cc6)cc5C)cc4)cc3)c(C)c2)cc1 [Example 10]					1.2%	0.81
Cc1cc(OCc2ccc(C(C)(C)C)cc2)ccc1N=Nc1ccc(N=Nc2ccc(N=Nc3ccc(OCc4ccc(C(C)(C)C)cc4)cc3C)cc2)cc1 [Example 4]	0.3%	0.75				
CCCCCc1ccc(COc2cc(C)c(N=Nc3ccc(N=Nc4ccc(N=Nc5c(C)cc(OCc6ccc(CCCCC)cc6)cc5C)cc4)cc3)c(C)c2)cc1 [Example 16]					3%	0.80
Cc1cc(C)c(COc2ccc(N=Nc3ccc(N=Nc4ccc(N=Nc5ccc(OCc6c(C)cc(C)cc6C)cc5C)cc4)cc3)c(C)c2)c(C)c1 [Example 3]	1.0%	0.77	110 h	1.95		
